Assay results published in patent US10370412B2, “Beta-hairpin peptidomimetics” (Polyphor AG, priority 2013, dated 2019).
Where a SMILES comes first, the peptide text is derived from it. [ ]: non-standard residue; d: D form. Cha = N[C@@H](CC1CCCCC1)C(=O)O; Chg = N[C@H](C(=O)O)C1CCCCC1; Tle = CC(C)(C)[C@H](N)C(=O)O; dDab = NCC[C@@H](N)C(=O)O; Orn = NCCC[C@H](N)C(=O)O; Dab = NCC[C@H](N)C(=O)O

Tested on: human red blood cells (hRBC)
Assay type: cell-based
Conditions: red cells of human, 1 h
Method: The peptides were tested for their hemolytic activity against human red blood cells (hRBC). Fresh hRBC were washed three times with phosphate buffered saline (PBS) and centrifuged for 10 min at 2000×g. Compounds (100 μg/ml) were incubated with 20% hRBC (v/v) for 1 h at 37° C. and shaking at 300 rpm. The final erythrocyte concentration was approximately 0.9×10^9 cells/ml. A value of 0% and 100% cell lyses, respectively, was determined by incubation of hRBC in the presence of PBS containing 0.001% acetic acid and 2.5% Triton X-100 in H2O, respectively. The samples were centrifuged, the supernatants were 8-fold diluted in PBS buffer and the optical densities (OD) were measured at 540 nm. The 100% lyses value (OD540H2O) gave an OD540 of approximately 0.5-1.0. Percent hemolysis was calculated as follows: (OD540peptide/OD540H2O)×100%.

Row | Compound | Hemolysis at 100 μg/ml [%]
1 | CC(C)C[C@@H]1NC(=O)[C@@H]2CCCN2C(=O)[C@H]2CCCN2C(=O)[C@H](CO)NC(=O)[C@H](C)NC(=O)[C@H](C(C)(C)C)NC(=O)[C@H](CCN)NC(=O)[C@H](Cc2c[nH]c3ccccc23)NC(=O)[C@H](CCN)NC(=O)[C@@H](CCN)NC(=O)[C@H](CCCN)NC(=O)[C@H](CCN)NC(=O)[C@H](Cc2ccc(O)cc2)NC(=O)[C@H](Cc2c[nH]c3ccccc23)NC1=O [compound 28, cyclo(-Leu-Trp-Tyr-Dab-Orn-^DDab-Dab-Trp-Dab-tBuGly-Ala-Ser-^DPro-Pro-)] (cyclo(LWY[Dab][Orn][dDab][Dab]W[Dab][Tle]AS[dP]P)) | 1
2 | CC(C)C[C@@H]1NC(=O)[C@@H]2CCCN2C(=O)[C@H]2CCCN2C(=O)[C@H](CO)NC(=O)[C@H](C)NC(=O)[C@H](Cc2c[nH]c3ccccc23)NC(=O)[C@H](CCN)NC(=O)[C@H](Cc2c[nH]c3ccccc23)NC(=O)[C@H](CCN)NC(=O)[C@@H](CCN)NC(=O)[C@H](CCCN)NC(=O)[C@H](CCN)NC(=O)[C@H](Cc2ccc(O)cc2)NC(=O)[C@H](Cc2c[nH]cn2)NC1=O [compound 29, cyclo(-Leu-His-Tyr-Dab-Orn-^DDab-Dab-Trp-Dab-Trp-Ala-Ser-^DPro-Pro-)] (cyclo(LHY[Dab][Orn][dDab][Dab]W[Dab]WAS[dP]P)) | 0
3 | CC(C)C[C@@H]1NC(=O)[C@@H]2CCCN2C(=O)[C@H]2CCCN2C(=O)[C@H](CO)NC(=O)[C@H](CO)NC(=O)[C@H](C(C)(C)C)NC(=O)[C@H](CCN)NC(=O)[C@H](Cc2c[nH]c3ccccc23)NC(=O)[C@H](CCN)NC(=O)[C@@H](CCN)NC(=O)[C@H](CCCN)NC(=O)[C@H](CCN)NC(=O)[C@H](Cc2ccc(O)cc2)NC(=O)[C@H](Cc2c[nH]cn2)NC1=O [compound 30, cyclo(-Leu-His-Tyr-Dab-Orn-^DDab-Dab-Trp-Dab-tBuGly-Ser-Ser-^DPro-Pro-)] (cyclo(LHY[Dab][Orn][dDab][Dab]W[Dab][Tle]SS[dP]P)) | 1
4 | CC(C)C[C@@H]1NC(=O)[C@@H]2CCCN2C(=O)[C@H]2CCCN2C(=O)[C@H](CO)NC(=O)[C@H](CO)NC(=O)[C@H](CC2CCCCC2)NC(=O)[C@H](CCN)NC(=O)[C@H](Cc2c[nH]c3ccccc23)NC(=O)[C@H](CCN)NC(=O)[C@@H](CCN)NC(=O)[C@H](CCCCN)NC(=O)[C@H](CCN)NC(=O)[C@H](Cc2ccc(O)cc2)NC(=O)[C@H](Cc2c[nH]c3ccccc23)NC1=O [compound 31, cyclo(-Leu-Trp-Tyr-Dab-Lys-^DDab-Dab-Trp-Dab-Cha-Ser-Ser-^DPro-Pro-)] (cyclo(LWY[Dab]K[dDab][Dab]W[Dab][Cha]SS[dP]P)) | 1
5 | CC(C)C[C@@H]1NC(=O)[C@@H]2CCCN2C(=O)[C@H]2CCCN2C(=O)[C@H](CO)NC(=O)[C@H](CO)NC(=O)[C@H](CC2CCCCC2)NC(=O)[C@H](CCN)NC(=O)[C@H](Cc2c[nH]c3ccccc23)NC(=O)[C@H](CCN)NC(=O)[C@@H](CCN)NC(=O)[C@H](CCCN)NC(=O)[C@H](CCN)NC(=O)[C@H](Cc2ccc(O)cc2)NC(=O)[C@H](Cc2c[nH]c3ccccc23)NC1=O [compound 32, cyclo(-Leu-Trp-Tyr-Dab-Orn-^DDab-Dab-Trp-Dab-Cha-Ser-Ser-^DPro-Pro-)] (cyclo(LWY[Dab][Orn][dDab][Dab]W[Dab][Cha]SS[dP]P)) | 3
6 | CC(C)C[C@@H]1NC(=O)[C@@H]2CCCN2C(=O)[C@H]2CCCN2C(=O)[C@H](CO)NC(=O)[C@H](CC(N)=O)NC(=O)[C@H](C(C)(C)C)NC(=O)[C@H](CCN)NC(=O)[C@H](Cc2c[nH]c3ccccc23)NC(=O)[C@H](CCN)NC(=O)[C@@H](CCN)NC(=O)[C@H](CCCN)NC(=O)[C@H](CCN)NC(=O)[C@H](Cc2ccc(O)cc2)NC(=O)[C@H](Cc2ccc(O)cc2)NC1=O [compound 33, cyclo(-Leu-Tyr-Tyr-Dab-Orn-^DDab-Dab-Trp-Dab-tBuGly-Asn-Ser-^DPro-Pro-)] (cyclo(LYY[Dab][Orn][dDab][Dab]W[Dab][Tle]NS[dP]P)) | 5
7 | CC(C)C[C@@H]1NC(=O)[C@@H]2CCCN2C(=O)[C@H]2CCCN2C(=O)[C@H](CO)NC(=O)[C@H](C)NC(=O)[C@H](C2CCCCC2)NC(=O)[C@H](CCN)NC(=O)[C@H](Cc2c[nH]c3ccccc23)NC(=O)[C@H](CCN)NC(=O)[C@@H](CCN)NC(=O)[C@H](CCCN)NC(=O)[C@H](CCN)NC(=O)[C@H](C(C)(C)C)NC(=O)[C@H](Cc2c[nH]c3ccccc23)NC1=O [compound 34, cyclo(-Leu-Trp-tBuGly-Dab-Orn-^DDab-Dab-Trp-Dab-Chg-Ala-Ser-^DPro-Pro-)] (cyclo(LW[Tle][Dab][Orn][dDab][Dab]W[Dab][Chg]AS[dP]P)) | 1
8 | CC[C@H](C)[C@@H]1NC(=O)[C@@H]2CCCN2C(=O)[C@H]2CCCN2C(=O)[C@H](CO)NC(=O)[C@H](C)NC(=O)[C@H](CC2CCCCC2)NC(=O)[C@H](CCN)NC(=O)[C@H](Cc2c[nH]c3ccccc23)NC(=O)[C@H](CCN)NC(=O)[C@@H](CCN)NC(=O)[C@H](CCCCN)NC(=O)[C@H](CCN)NC(=O)[C@H](C(C)(C)C)NC(=O)[C@H](Cc2c[nH]c3ccccc23)NC1=O [compound 35, cyclo(-Ile-Trp-tBuGly-Dab-Lys-^DDab-Dab-Trp-Dab-Cha-Ala-Ser-^DPro-Pro-)] (cyclo(IW[Tle][Dab]K[dDab][Dab]W[Dab][Cha]AS[dP]P)) | 1
9 | CC(C)C[C@@H]1NC(=O)[C@@H]2CCCN2C(=O)[C@H]2CCCN2C(=O)[C@H](CO)NC(=O)[C@H](CO)NC(=O)[C@H](C2CCCCC2)NC(=O)[C@H](CCN)NC(=O)[C@H](Cc2c[nH]c3ccccc23)NC(=O)[C@H](CCN)NC(=O)[C@@H](CCN)NC(=O)[C@H](CCCN)NC(=O)[C@H](CCN)NC(=O)[C@H](C(C)(C)C)NC(=O)[C@H](Cc2c[nH]c3ccccc23)NC1=O [compound 36, cyclo(-Leu-Trp-tBuGly-Dab-Orn-^DDab-Dab-Trp-Dab-Chg-Ser-Ser-^DPro-Pro-)] (cyclo(LW[Tle][Dab][Orn][dDab][Dab]W[Dab][Chg]SS[dP]P)) | 1
10 | CC(C)C[C@@H]1NC(=O)[C@@H]2CCCN2C(=O)[C@H]2CCCN2C(=O)[C@H](CO)NC(=O)[C@H](CO)NC(=O)[C@H](C(C)(C)C)NC(=O)[C@H](CCN)NC(=O)[C@H](Cc2c[nH]c3ccccc23)NC(=O)[C@H](CCN)NC(=O)[C@@H](CCN)NC(=O)[C@H](CCCN)NC(=O)[C@H](CCN)NC(=O)[C@H](CC2CCCCC2)NC(=O)[C@H](Cc2c[nH]c3ccccc23)NC1=O [compound 37, cyclo(-Leu-Trp-Cha-Dab-Orn-^DDab-Dab-Trp-Dab-tBuGly-Ser-Ser-^DPro-Pro-)] (cyclo(LW[Cha][Dab][Orn][dDab][Dab]W[Dab][Tle]SS[dP]P)) | 1
11 | CC(C)C[C@@H]1NC(=O)[C@@H]2CCCN2C(=O)[C@H]2CCCN2C(=O)[C@H](CO)NC(=O)[C@H](Cc2ccc(O)cc2)NC(=O)[C@H](C(C)(C)C)NC(=O)[C@H](CCN)NC(=O)[C@H](Cc2c[nH]c3ccccc23)NC(=O)[C@H](CCN)NC(=O)[C@@H](CCN)NC(=O)[C@H](CCCN)NC(=O)[C@H](CCN)NC(=O)[C@H](Cc2ccc(O)cc2)NC(=O)[C@H](Cc2ccc(O)cc2)NC1=O [compound 38, cyclo(-Leu-Tyr-Tyr-Dab-Orn-^DDab-Dab-Trp-Dab-tBuGly-Tyr-Ser-^DPro-Pro-)] (cyclo(LYY[Dab][Orn][dDab][Dab]W[Dab][Tle]YS[dP]P)) | 0
